Article PMC5769417, “Single- and Multiple-Dose Trials to Determine the Pharmacokinetics, Safety, Tolerability, and Sex Effect of Oral Ginsenoside Compound K in Healthy Chinese Volunteers” (Frontiers in Pharmacology, 2018)
Where “and” joins values, the source holds several entries; their conditions need not be identical. Equal entries are not always repeated.

Assay: Single-dose trial, cumulative urine excretion
Format: in vivo, human
Conditions: fasting, urine 0–48 h
Description: Single-dose pharmacokinetics: In the 25 and 50 mg dose groups, serial blood samples were collected at pre-dose (t = 0) and at 0.25, 0.5, 1, 1.5, 2, 2.5, 3, 3.5, 4, 5, 6, 8, 12, 24, 36, and 48 h post-dose. From the 100 to 800 mg dose groups, blood samples were additionally collected at 72 and 96 h post-dose. Plasma was separated from whole blood by refrigerated centrifugation (3,000 rpm, 10 min), within 1 h after sampling, transferred to labeled storage tubes, and stored at −70°C prior to workup and analysis. Urine samples were collected at different time periods: 0–2, 2–4, 4–6, 6–8, 8–10, 10–12, 12–24, and 24–48 h post-dose and the volume was measured immediately after collection from each subject. We preserved 8 ml specimens into 10 ml centrifuge tubes and stored at −70°C for PK assessment.
The processing method of the urine samples was similar to the method used for the plasma samples. For CK, the only difference was in the mobile phase (acetonitrile: 10 mM aqueous ammonium acetate = 50:50, V/V, for plasma samples; acetonitrile: 20 mM aqueous ammonium acetate = 60:40, V/V, for urine samples; acetonitrile, Merck KGaA, Darmstadt, Germany; ammonium acetate, CNW technologies GmbH, Duesseldorf, Germany). As for 20(S)-PPD, neither the IS nor the mobile phase were the same (IS: coumarin for plasma samples and finasteride for urine samples; mobile phase was acetonitrile: 10 mM aqueous ammonium acetate = 50: 50, V/V, for plasma samples, and acetonitrile: 0.1% formic acid aqueous solution = 50: 50, V/V, for urine samples). The calibration curve range for CK was linear from 1.00 to 1002.0 ng·ml^−1 with a correlation coefficient equal to 0.9984, and from 0.15 to 54.30 ng·ml^−1 with a correlation coefficient equal to 0.9978 for 20(S)-PPD. Three levels of QC samples (2.00, 50.10, or 801.60 ng.ml^−1 CK) were prepared in urine for testing accuracy and coefficient of variations (CVs), and the values were 94–103% and 1.06–6.54%, respectively.
Experimental observations provided the plasma CK and 20(S)-PPD concentrations vs. the time data after single-dose administration, including maximum plasma concentration (Cmax) and the time to maximum plasm concentration (Tmax). The area under the curve (AUC) from time zero to the last time point (AUClast) and the AUC extrapolated to infinity (AUCinf) were calculated using the linear trapezoidal rule. The slope (elimination rate constant, K) of the terminal phase of the plasma concentration-time profile was determined, using a weighting factor of 1, by the method of least squares (log-linear regression of at least three data points). The t1/2 was estimated as (ln2)/K. The apparent plasma clearance of the drug after oral administration (CL/F) was expressed as a function of bioavailability (F) and calculated as the dose divided by AUCinf, assuming that the complete systemic bioavailability F = 1. The apparent volume of distribution (V/F) was equal to (CL/F)/K. The mean residence time (MRT) was calculated as the area under the first moments curve (AUMC) divided by AUC. The dose-normalized PK parameters e.g., Cmax/D and AUClast/D, were obtained by dividing each PK result by the administered dose. The cumulative excretion rate was calculated as the amount of unchanged drug in the urine over a time interval divided by the dose and was expressed as thousand points (‰).

CC(C)=CCC[C@](C)(OC1O[C@H](CO)[C@@H](O)[C@H](O)[C@H]1O)[C@H]1CC[C@]2(C)[C@@H]1[C@H](O)C[C@@H]1[C@@]3(C)CC[C@H](O)C(C)(C)[C@@H]3CC[C@]12C (stereo partly drawn) [CK, 20-O-beta-D-glucopyranosyl-20(S)-protopanaxadiol]
Ae, accumulative urine excretion rate (25 mg oral): 0.41 ± 0.29 ‰
Ae, accumulative urine excretion rate (50 mg oral): 0.46 ‰ and 0.46 ± 0.34 ‰
Ae, accumulative urine excretion rate (100 mg oral): 0.25 ± 0.13 ‰
Ae, accumulative urine excretion rate (200 mg oral): 0.27 ± 0.15 ‰
Ae, accumulative urine excretion rate (400 mg oral): 0.19 ± 0.13 ‰
Ae, accumulative urine excretion rate (600 mg oral): 0.10 ‰ and 0.10 ± 0.08 ‰
Ae, accumulative urine excretion rate (800 mg oral): 0.10 ‰ and 0.10 ± 0.04 ‰
